Tested on: subcutaneous HT1080 (FAP−) and HT1080-hFAP (FAP+) tumors
Assay: Pharmacokinetic modeling (2TCM, Patlak) of small animal PET with extracorporeal arterial input function
Assay type: in vivo, mouse
Set-up: Vs (distribution volume) / k1 / k2 / k3 / k4: unit not given here
Details: geometric mean ± SD; for Vs (distribution volume) / k1 / k2 / k3 / k3/k4 / k4: 2TCM
Description: Before PET/MRI at day 12, p.i. mice received surgery to establish an extracorporeal circulation shunting of the blood from the femoral artery to the tail vein or contralateral femoral vein as described previously. At 40 cm from the femoral artery, the shunt (0.3 mm inner diameter silicon; total extracorporeal volume 56.6 μL) was led through a Twilite coincidence detector. Acquired blood activity curves were calibrated with a separately measured calibration factor for ^68Ga according to vendor’s instructions. The curves were corrected for delay and dispersion based on a numerical deconvolution, using dispersion kernels derived from measuring step functions at defined pumping speeds. Standard 2-tissue compartmental (2TCM) pharmacokinetic (PK) modeling and Patlak analysis was performed for the triceps muscle, and FAP^− and FAP^+ tumors using PMOD version 3.703 (PMOD Technologies LLC) and was based on mean PET VOI time activity curves and Twilite-based extracorporeal arterial input functions (AIF). AIF plasma fraction was calculated based on direct hematocrit measurements after imaging (StatStrip® Hb/Hct, Nova Biomedical).

With `CN(CCCN1CCN(C(=O)CN2CCN(CC(=O)[O-])CCN(CC(=O)[O-])CCN(CC(=O)[O-])CC2)CC1)c1ccc2nccc(C(=O)NCC(=O)N3CC(F)(F)C[C@H]3C#N)c2c1.[68Ga+3]` [^68Ga-FAPI-46, [^68Ga]Ga-FAPI-46] the “Vs (distribution volume)” value (tumor FAP+) was 0.25 ± 0.29, the k1 (tumor FAP+) was 0.042 ± 0.012 and the k2 (tumor FAP+) was 0.298 ± 0.038. The k3 (tumor FAP+) was 0.029 ± 0.024, the k3/k4 (tumor FAP+) was 1.77 ± 2.74 and the k4 (tumor FAP+) was 0.017 ± 0.011. The “Vs (distribution volume)” value (tumor FAP+, listed as FAPI-46) was 0.246 ± 0.287, the k3/k4 (tumor FAP+, listed as FAPI-46) was 1.770 ± 2.737 and the “Vs (distribution volume)” value (tumor FAP−) was 0.121 ± 0.227. For the same compound, the k1 (tumor FAP−) was 0.049 ± 0.003, the k2 (tumor FAP−) was 0.323 ± 0.115 and the k3 (tumor FAP−) was 0.012 ± 0.031. It also gave a k3/k4 (tumor FAP−) of 0.801 ± 0.908, a k4 (tumor FAP−) of 0.015 ± 0.038 and a Patlak intercept (tumor FAP+) of 0.176 ± 0.035. It also gave a Patlak slope (tumor FAP+) of 0.002 ± 0.001, a Patlak intercept (tumor FAP−) of 0.207 ± 0.019 and a Patlak slope (tumor FAP−) of 0.000 ± 0.000.
